Measured values as given in patent US20110112151A1, “COMPOUND CAPABLE OF INHIBITING 11-BETA HYDROXYSTERIOD DEHYDROGENASE” (priority 2008, published 2011).
Read-outs that look alike come from different tables or passages of the source.

What was measured:
11β-HSD1 = biological target: T1, 11β-HSD1 (Homo sapiens, UniProt P28845); experiment: 11β-HSD1 HEK assay (cell based assay, SPA)
T1 construct: expressed in transfected cells; host or cells: HEK 293 (stably transfected, HEK 293/HSD11B1)
Description: 11β-HSD1 HEK Assay Protocol (Cell Based Assay)
11β-HSD1 activity is measured in whole HEK 293 cells stably transfected with the HSD11B1 gene. Cells are incubated in 96-well microplates in the presence of tritiated substrate. Enzyme activity is determined by measuring the amount of tritated product by scintillation proximity assay (SPA). Assay plates contain internal high and low controls to allow calculation of percentage inhibition.
1. […] 2. When the cells are 80% confluent the medium is removed from each well. 100 μl fresh, serum-free, medium containing ^3H-cortisone and test compound in 1% DMSO is added to each well*. Control wells are also dispensed. […] 3. The plate is incubated at 37° C. for the required time period. 4. 50 μl of media is removed from each well and transferred to a microplate containing 100 μl of a pre-incubated mixture of anti-cortisol antibody and SPA bead. The mixture is incubated with gentle shaking until equilibrium is reached, before transferring to a scintillation counter to establish the enzyme activity in each sample.
10 μl of compound is dispensed into each well of a 96-well microplate in 10% DMSO at 100 μM concentration. 90 μl media containing ^3H-cortisone is added to each well. The compound/media/substrate mixture is then transferred to the assay plate containing the cells. […]

[1] = HEK293, at 1 μM, whole HEK 293 cells stably transfected with the HSD11B1 gene, 3H-cortisone substrate, read-out: Activity (inhibition of 11β-HSD1)

T1 sequence (P28845 whole entry): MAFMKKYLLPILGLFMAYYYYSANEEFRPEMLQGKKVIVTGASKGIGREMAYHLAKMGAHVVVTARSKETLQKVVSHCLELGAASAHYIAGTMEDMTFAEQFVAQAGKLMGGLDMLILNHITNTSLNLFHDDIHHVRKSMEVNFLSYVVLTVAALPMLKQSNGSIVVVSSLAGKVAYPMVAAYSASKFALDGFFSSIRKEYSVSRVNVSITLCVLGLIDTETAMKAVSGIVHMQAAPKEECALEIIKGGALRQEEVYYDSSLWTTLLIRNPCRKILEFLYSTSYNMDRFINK

Structure (SMILES) | inhibition at 1 µM (11β-HSD1; [1]) | melting point | inhibition at 1 µM (11β-HSD1; HEK293, read-out: Activity (inhibition of 11β-HSD1))
O=C(CSc1ccncc1)C12CC3CC(CC(C3)C1)C2 [Example 27, 1-Adamantan-1-yl-2-(pyridin-4-ylsulfanyl)-ethanone] | > 60% | 114 to 115 °C | 
Cn1c(SCC(=O)C23CC4CC(CC(C4)C2)C3)nnc1C1CC1 [Example 101, 1-(Adamantan-1-yl)-2-[(5-cyclopropyl-4-methyl-4H-1,2,4-triazol-3-yl)sulfanyl]ethan-1-one] | > 60% | 96 to 97.5 °C | 
O=C(CS(=O)(=O)Cc1ccc(Cl)nc1)C12CC3CC(CC(C3)C1)C2 [Example 64, 1-Adamantan-1-yl-2-(6-chloro-pyridin-3-ylmethanesulfonyl)-ethanone] | > 60% | 159 to 161 °C | 
O=C(CS(=O)(=O)c1ccncc1)C12CC3CC(CC(C3)C1)C2 [Example 32, 1-(adamantan-1-yl)-2-(pyridine-4-sulfonyl)ethan-1-one] | > 60% | 143 to 144 °C | 
Cn1ccnc1[S+]([O-])C(C)(C)C(=O)C12CC3CC(CC(C3)C1)C2 (centres unmarked) [Example 15, 1-Adamantan-1-yl-2-methyl-2-(1-methyl-1H-imidazole-2-sulfinyl)-propan-1-one] | < 20% | 98 to 102 °C | 
Cn1cnnc1[S+]([O-])CC(=O)C12CC3CC(CC(C3)C1)C2 (centres unmarked) [Example 63, 1-Adamantan-1-yl-2-(4-methyl-4H-[1,2,4]triazole-3-sulfinyl)-ethanone] | > 60% | 124.5 to 127 °C | 
O=C(CCc1cccnc1)C12CC3CC(CC(C3)C1)C2 [Example 39, 1-Adamantan-1-yl-3-pyridin-3-yl-propan-1-one] | > 60% | 43 to 44.5 °C | 
Cc1cccc([S+]([O-])CC(=O)C23CC4CC(CC(C4)C2)C3)n1 (centres unmarked) [Example 31, 1-(adamantan-1-yl)-2-[(6-methylpyridine-2-)sulfinyl]ethan-1-one] | > 60% | 75 to 76 °C | 
O=C(CS(=O)(=O)Cc1ccc[n+]([O-])c1)C12CC3CC(CC(C3)C1)C2 [Example 10, 1-Adamantan-1-yl-2-(1-oxy-pyridin-3-ylmethanesulfonyl)-ethanone] | > 60% | 182 to 183.5 °C | 
O=C(CSCc1cccnc1)C12CC3CC(CC(C3)C1)C2 [Example 7, 1-Adamantan-1-yl-2-(pyridin-3-ylmethylsulfanyl)-ethanone] | > 60% | 45 to 47 °C | 
O=C(Nc1nnc([S+]([O-])CC(=O)C23CC4CC(CC(C4)C2)C3)s1)C1CC1 (centres unmarked) [Example 96, N-(5-{[2-(Adamantan-1-yl)-2-oxoethane]sulfinyl}-1,3,4-thiadiazol-2-yl)cyclopropanecarboxamide] | > 60% | 172.5 to 174 °C | 
O=C(CS(=O)(=O)Cc1cccc[n+]1[O-])C12CC3CC(CC(C3)C1)C2 [Example 76, 1-Adamantan-1-yl-2-(1-oxy-pyridin-2-ylmethanesulfonyl)-ethanone] | > 60% | 225 to 227.5 °C | 
O=C(CSc1n[nH]c(-c2ccccc2)n1)C12CC3CC(CC(C3)C1)C2 [Example 89, 1-(Adamantan-1-yl)-2-[(5-phenyl-1H-1,2,4-triazol-3-yl)sulfanyl]ethanone] | < 20% | 187 to 188 °C | 
Cn1nnnc1SCC(=O)C12CC3CC(CC(C3)C1)C2 [Example 92, 1-(Adamantan-1-yl)-2-[(1-methyl-1,2,3,4-tetrazol-5-yl)sulfanyl]ethanone] | > 60% | 112 to 113 °C | 
CSc1nnc(SCC(=O)C23CC4CC(CC(C4)C2)C3)s1 [Example 106, 1-(Adamantan-1-yl)-2-{[5-(methylsulfanyl)-1,3,4-thiadiazol-2-yl]sulfanyl}ethan-1-one] | > 60% | 133.5 to 135 °C | 
O=C(Nc1nnc(S(=O)(=O)CC(=O)C23CC4CC(CC(C4)C2)C3)s1)C1CC1 [Example 97, N-(5-{[2-(Adamantan-1-yl)-2-oxoethane]sulfonyl}-1,3,4-thiadiazol-2-yl)cyclopropanecarboxamide] | > 60% | 209 to 211 °C | 
CNC(=O)c1ccc(SCC(=O)C23CC4CC(CC(C4)C2)C3)nc1 [Example 36, 6-(2-Adamantan-1-yl-2-oxo-ethylsulfanyl)-N-methyl-nicotinamide] | > 60% | 184 to 185.5 °C | 
O=C(CSc1ccc(C(F)(F)F)cn1)C12CC3CC(CC(C3)C1)C2 [Example 66, 1-Adamantan-1-yl-2-(5-trifluoromethyl-pyridin-2-ylsulfanyl)-ethanone] | > 60% | 141 to 142 °C | 
COCc1nnc(SCC(=O)C23CC4CC(CC(C4)C2)C3)n1C [Example 107, 1-(Adamantan-1-yl)-2-{[5-(methoxymethyl)-4-methyl-4H-1,2,4-triazol-3-yl]sulfanyl}ethan-1-one] | > 60% | 109 to 111 °C | 

Structure (SMILES) | inhibition at 1 µM (11β-HSD1; [1]) | melting point | inhibition at 1 µM (11β-HSD1; HEK293, read-out: Activity (inhibition of 11β-HSD1))
CC(=O)Nc1nnc(SCC(=O)C23CC4CC(CC(C4)C2)C3)s1 [Example 91, N-(5-{[2-(Adamantan-1-yl)-2-oxoethyl]sulfanyl}-1,3,4-thiadiazol-2-yl)acetamide] | > 60% | 208 to 210 °C | 
Cc1cccc(SCC(=O)C23CC4CC(CC(C4)C2)C3)n1 [Example 26, 1-Adamantan-1-yl-2-(6-methyl-pyridin-2-ylsulfanyl)-ethanone] | > 60% | 115.5 to 116.5 °C | 
COc1cncc(COCC(=O)C23CC4CC(CC(C4)C2)C3)c1 [Example 98, 1-Adamantan-1-yl-2-(5-methoxy-pyridin-3-ylmethoxy)-ethanone] | > 60% |  | 
O=C(CS(=O)(=O)Cc1cccnc1)C12CC3CC(CC(C3)C1)C2 [Example 9, 1-Adamantan-1-yl-2-(pyridin-3-ylmethanesulfonyl)-ethanone] | > 60% |  | 
Cc1cc(C)c(C(=O)COc2cccnc2)c(C)c1 [Example 72, 2-(Pyridin-3-yloxy)-1-(2,4,6-trimethyl-phenyl)-ethanone] | < 20% |  | 
Cn1cnnc1SCC(=O)C1(c2ccc(Cl)cc2)CC1 [Example 100, 1-(1-(4-Chlorophenyl)cyclopropyl)-2-(4-methyl-4H-1,2,4-triazol-3-ylthio)ethanone] | 20 to 60% |  | 
Cn1cnnc1[S+]([O-])CC(=O)C1(c2ccc(Cl)cc2)CCC1 (centres unmarked) [Example 109, 1-(1-(4-Chlorophenyl)cyclobutyl)-2-(4-methyl-4H-1,2,4-triazol-3-ylsulfinyl)ethanone] | < 20% |  | 
Cn1cnnc1SCC(=O)C1(c2ccc(Cl)cc2)CCC1 [Example 108, 1-(1-(4-Chlorophenyl)cyclobutyl)-2-(4-methyl-4H-1,2,4-triazol-3-ylthio)ethanone] | 20 to 60% |  | 
O=C(CSc1ccccn1)C12CC3CC(CC(C3)C1)C2 [Example 12, 1-Adamantan-1-yl-2-(pyridin-2-ylsulfanyl)-ethanone] | > 60% |  | 
Cn1ccnc1S(=O)(=O)CC(=O)C1(c2ccc(Cl)cc2)CCC1 [Example 24, 1-[1-(4-Chloro-phenyl)-cyclobutyl]-2-(1-methyl-1H-imidazole-2-sulfonyl)-ethanone] | < 20% |  | 
Cc1nnc(S(=O)(=O)CC(=O)C23CC4CC(CC(C4)C2)C3)s1 [Example 79, 1-Adamantan-1-yl-2-(5-methyl-[1,3,4]thiadiazole-2-sulfonyl)-ethanone] |  |  | > 60%
COc1cccnc1COCC(=O)C12CC3CC(CC(C3)C1)C2 [Example 86, 2-((3-Methoxypyridin-2-yl)methoxy)-1-adamantylethanone] | > 60% |  | 
O=C(CS(=O)(=O)Cc1ccncc1)C12CC3CC(CC(C3)C1)C2 [Example 83, 1-Adamantan-1-yl-2-(pyridin-4-ylmethanesulfonyl)-ethanone] | > 60% |  | 
O=C(CS(=O)(=O)c1ccccn1)C1(c2ccc(Cl)cc2)CCC1 [Example 22] | < 20% |  | 
Cc1cc(C)c(C(=O)CSc2ccccn2)c(C)c1 [Example 73, 2-(Pyridin-2-ylsulfanyl)-1-(2,4,6-trimethyl-phenyl)-ethanone] | < 20% |  | 
O=C(C[S+]([O-])c1ccccn1)C1(c2ccc(Cl)cc2)CCCCC1 (centres unmarked) [Example 49, 1-[1-(4-Chloro-phenyl)-cyclohexyl]-2-(pyridine-2-sulfinyl)-ethanone] | < 20% |  | 
Cn1ccnc1SCC(=O)C1(c2ccc(Cl)cc2)CC1 [Example 1, 1-[1-(4-Chloro-phenyl)-cyclopropyl]-2-(1-methyl-1H-imidazol-2-ylsulfanyl)-ethanone] | > 60% |  | 
Cc1cccc(S(=O)(=O)CC(=O)C23CC4CC(CC(C4)C2)C3)n1 [Example 30, 1-(adamantan-1-yl)-2-[(6-methylpyridine-2-)sulfonyl]ethan-1-one] | > 60% |  | 
CC(=O)Nc1nnc(S(=O)(=O)CC(=O)C23CC4CC(CC(C4)C2)C3)s1 [Example 93, N-(5-{[2-(Adamantan-1-yl)-2-oxoethane]sulfonyl}-1,3,4-thiadiazol-2-yl)acetamide] | > 60% |  | 
